Tests used:
Type in all cases: in vivo
[1] = tested on: peach aphid (Myzus persicae); assay: Myzus test; settings: active compound concentration 0.1 %, infested cabbage leaves (Brassica oleracea) dipped
Method: Myzus Test Solvent: 7 parts by weight of dimethylformamide Emulsifier: 1 part by weight of alkylaryl polyglycol ether To produce a suitable preparation of active compound, 1 part by weight of active compound is mixed with the stated amounts of solvent and emulsifier, and the concentrate is diluted with emulsifier-containing water to the desired concentration. Cabbage leaves (Brassica oleracea) which are heavily infested by the peach aphid (Myzus persicae) are treated by being dipped into the preparation of active compound of the desired concentration. After the desired period of time, the kill in % is determined. 100% means that all aphids have been killed; 0% means that none of the aphids have been killed.

[2] = tested on: caterpillars of the diamond back moth (Plutella xylostella); assay: Plutella test; settings: active compound concentration 0.1 %, cabbage leaves (Brassica oleracea) dipped
[3] = tested on: larvae of the mustard beetle (Phaedon cochleariae); assay: Phaedon larvae test; settings: active compound concentration 0.1 %, cabbage leaves (Brassica oleracea) dipped
Method: Phaedon Larvae Test Solvent: 7 parts by weight of dimethylformamide Emulsifier: 1 part by weight of alkylaryl polyglycol ether To produce a suitable preparation of active compound, 1 part by weight of active compound is mixed with the stated amounts of solvent and emulsifier, and the concentrate is diluted with emulsifier-containing water to the desired concentration. Cabbage leaves (Brassica oleracea) are treated by being dipped into the preparation of active compound of the desired concentration and are populated with larvae of the mustard beetle (Phaedon cochleariae) while the leaves are still moist. After the desired period of time, the kill in % is determined. 100% means that all beetle larvae have been killed; 0% means that none of the beetle larvae have been killed.

[4] = tested on: green rice leaf hoppers (Nephotettix cincticeps); assay: Nephotettix test; settings: active compound concentration 0.1 %, rice seedlings (Oryza sativa) dipped
Method: Nephotettix Test Solvent: 7 parts by weight of dimethylformamide Emulsifier: 1 part by weight of alkylaryl polyglycol ether To produce a suitable preparation of active compound, 1 part by weight of active compound is mixed with the stated amounts of solvent and emulsifier, and the concentrate is diluted with emulsifier-containing water to the desired concentration. Rice seedlings (Oryza sativa) are treated by being dipped into the active compound preparation of the desired concentration and are populated with green rice leaf hoppers (Nephotettix cincticeps) while the leaves are still moist. After the desired period of time, the kill in % is determined. 100% means that all leaf hoppers have been killed; 0% means that none of the leaf hoppers have been killed.

Structure (SMILES): Cc1cc(F)ccc1-c1c(O)c(C)c(-c2ccccn2)oc1=O [drawing 10]
- Kill in % after 6 d [1]: 98%

Structure (SMILES): Cc1cc(F)ccc1-c1c(O)c(C)c(-c2ccccn2)oc1=O [drawing 14]
- Kill in % after 7 d [2]: 100%

Structure (SMILES): Cc1cc(Cl)ccc1-c1c(O)c(C)c(-c2ccc(F)cc2)oc1=O [drawing 13]
- Kill in % after 7 d [2]: 100%

Structure (SMILES): Cc1cc(F)ccc1-c1c(O)c(C)c(-c2ccccn2)oc1=O [drawing 12]
- Kill in % after 7 d [3]: 100%

Structure (SMILES): Cc1cc(Cl)ccc1-c1c(O)c(C)c(-c2ccc(F)cc2)oc1=O [drawing 11]
- Kill in % after 6 d [4]: 100%

Reference: patent US6472350B1, “Utilization of 3-phenyl-pyrones for pest control” (Bayer Aktiengesellschaft, priority 1998, dated 2002)
